This is an account of results in patent US11725036B2, “Modified lipidated relaxin B chain peptides and their therapeutic use” (Sanofi, priority 2018, dated 2023).

Starred links: 1 amine or outer side, 2 acyl side, 3 side chain; linkers in the order of their positions; H or OH if unused. Non-standard residues stand in square brackets, D forms with d. Residues, ends and D or L forms follow the SMILES beside them. Groups on a side chain read outwards from the residue. *: point of attachment. X5 = CCCCCCCCCCCCCCCC(=O)N[C@@H](CCC(=O)N[C@@H](CCC(=O)N[C@@H](CCC(=O)NCCCOCCOCCOCCCNC(=O)CCC(=O)NCCCOCCOCCOCCCNC(=O)CCC(=O)NCCCOCCOCCOCCCNC(=O)CCC(=O)NCCCOCCOCCOCCCN*)C(=O)O)C(=O)O)C(=O)O; X1 = CCCCCCCCCCCCCCCC(=O)N[C@@H](CCC(=O)N[C@@H](CCC(=O)N[C@@H](CCC(=O)NCCCOCCOCCOCCCNC(=O)CCC(=O)NCCCOCCOCCOCCCNC(=O)CCC(=O)NCCCOCCOCCOCCCN*)C(=O)O)C(=O)O)C(=O)O; Suc = O=C(CCC(=O)[*:2])[*:1]; Aib = CC(C)(N)C(=O)O

The assay deals with T1, RXFP1 (Homo sapiens, UniProt Q9HBX9).
T1 construct: OVCAR5 cells expressing endogenous RXFP1; endogenous in cells; host or cells: OVCAR5
T1 sequence (Q9HBX9 1-757): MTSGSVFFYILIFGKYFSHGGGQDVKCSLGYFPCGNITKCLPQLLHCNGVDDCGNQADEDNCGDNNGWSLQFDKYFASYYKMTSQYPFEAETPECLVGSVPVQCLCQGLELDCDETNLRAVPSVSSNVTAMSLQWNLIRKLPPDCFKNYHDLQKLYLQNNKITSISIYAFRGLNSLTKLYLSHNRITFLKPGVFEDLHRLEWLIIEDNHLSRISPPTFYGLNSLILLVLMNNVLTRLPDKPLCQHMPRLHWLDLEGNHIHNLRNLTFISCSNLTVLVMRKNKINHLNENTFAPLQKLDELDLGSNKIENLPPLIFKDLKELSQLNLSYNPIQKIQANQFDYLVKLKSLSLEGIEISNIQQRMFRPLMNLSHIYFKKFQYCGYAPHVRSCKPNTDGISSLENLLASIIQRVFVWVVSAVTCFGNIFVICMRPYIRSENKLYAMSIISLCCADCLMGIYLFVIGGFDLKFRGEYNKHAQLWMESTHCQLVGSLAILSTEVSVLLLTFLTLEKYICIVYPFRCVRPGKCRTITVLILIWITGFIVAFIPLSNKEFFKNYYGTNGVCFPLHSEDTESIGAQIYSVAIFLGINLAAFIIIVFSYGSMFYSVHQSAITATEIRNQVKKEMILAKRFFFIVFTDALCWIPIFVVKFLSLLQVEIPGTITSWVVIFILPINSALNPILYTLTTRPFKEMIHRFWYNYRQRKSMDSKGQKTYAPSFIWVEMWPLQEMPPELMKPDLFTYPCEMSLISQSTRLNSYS
Briefly: OVCAR5 cAMP assay (HTRF). The settings on record: for Emax: OVCAR 5 cells, maximal cAMP relative to H2-relaxin; for EC50: OVCAR 5 cells expressing endogenous RXFP1, cAMP readout. The assay is classed as cell-based. The procedure, abridged:
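Peptide agonism measured as intracellular cAMP (HTRF) after 30 min at 37° C in serum-free medium, following 40 min 1 mM IBMX preincubation of OVCAR5 cells. Nonlinear regression gave EC50; Emax % = 100 × compound maximal cAMP / H2-relaxin maximal cAMP.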
For orientation: Changes in cAMP serve as a functional read-out for many G protein-coupled receptors.

By Emax is commonly meant the size of the effect at its maximum, as opposed to the concentration needed. `CCCCCCCCCCCCCCCC(=O)N[C@@H](CCC(=O)N[C@@H](CCC(=O)N[C@@H](CCC(=O)NCCCOCCOCCOCCCNC(=O)CCC(=O)NCCCOCCOCCOCCCNC(=O)CCC(=O)NCCCOCCOCCOCCCNC(=O)CCC(=O)NCCCC[C@H](NC(=O)CNC(=O)[C@H](CCC(=O)O)NC(=O)C(C)(C)NC(=O)C(C)(C)NC(=O)[C@@H](NC(=O)[C@H](CCCCNC(C)=O)NC(=O)[C@H](C)NC(=O)[C@H](CCCNC(=N)N)NC(=O)[C@@H](NC(=O)[C@H](CCCCN)NC(=O)[C@H](CCC(=O)O)NC(=O)[C@H](CCCNC(=N)N)NC(=O)CNC(=O)[C@H](CCC(=O)O)NC(=O)[C@H](CC(C)C)NC(C)=O)C(C)C)[C@@H](C)CC)C(=O)N[C@@H](CO)C(=O)N[C@H](C(=O)N[C@@H](Cc1c[nH]c2ccccc12)C(=O)N[C@@H](CCCCNC(C)=O)C(=O)NC(C)(C)C(=O)N[C@@H](CCCNC(=N)N)C(=O)N[C@@H](C)C(=O)N[C@@H](CCCCNC(C)=O)C(N)=O)[C@@H](C)O)C(=O)O)C(=O)O)C(=O)O` [compound 66] (Ac-LEGREKVRAK(Ac)I[Aib][Aib]EGK([Suc-X1])STWK(Ac)[Aib]RAK(Ac)-NH2): the Emax is 93%. A word on the EC50: it is the concentration that produces a half-maximal response. Higher therefore signals weaker potency. In the case of `CCCCCCCCCCCCCCCC(=O)N[C@@H](CCC(=O)N[C@@H](CCC(=O)N[C@@H](CCC(=O)NCCCOCCOCCOCCCNC(=O)CCC(=O)NCCCOCCOCCOCCCNC(=O)CCC(=O)NCCCOCCOCCOCCCNC(=O)CCC(=O)NCCCC[C@H](NC(=O)CNC(=O)[C@H](CCC(=O)O)NC(=O)C(C)(C)NC(=O)C(C)(C)NC(=O)[C@@H](NC(=O)[C@H](CCCCNC(C)=O)NC(=O)[C@H](C)NC(=O)[C@H](CCCNC(=N)N)NC(=O)[C@@H](NC(=O)[C@H](CCCNC(=N)N)NC(=O)[C@H](CCC(=O)O)NC(=O)[C@H](CCCNC(=N)N)NC(=O)CNC(=O)[C@H](CCC(=O)O)NC(=O)[C@H](CC(C)C)NC(C)=O)C(C)C)[C@@H](C)CC)C(=O)N[C@@H](CO)C(=O)N[C@H](C(=O)N[C@@H](Cc1c[nH]c2ccccc12)C(=O)N[C@@H](CO)C(=O)NC(C)(C)C(=O)N[C@@H](CCCNC(=N)N)C(=O)N[C@@H](CCCCN)C(=O)N[C@@H](CCCCNC(C)=O)C(N)=O)[C@@H](C)O)C(=O)O)C(=O)O)C(=O)O` [compound 67] (Ac-LEGRERVRAK(Ac)I[Aib][Aib]EGK([Suc-X1])STWS[Aib]RKK(Ac)-NH2), the EC50 stood at 0.48 nM and the Emax worked out at 95%.

`CCCCCCCCCCCCCCCC(=O)N[C@@H](CCC(=O)N[C@@H](CCC(=O)N[C@@H](CCC(=O)NCCCOCCOCCOCCCNC(=O)CCC(=O)NCCCOCCOCCOCCCNC(=O)CCC(=O)NCCCOCCOCCOCCCNC(=O)CCC(=O)NCCCC[C@H](NC(=O)CNC(=O)[C@H](CCC(=O)O)NC(=O)C(C)(C)NC(=O)C(C)(C)NC(=O)[C@@H](NC(=O)[C@H](CCCCNC(C)=O)NC(=O)[C@H](C)NC(=O)[C@H](CCCNC(=N)N)NC(=O)[C@@H](NC(=O)[C@H](CCCCN)NC(=O)[C@H](CCC(=O)O)NC(=O)[C@H](CCCNC(=N)N)NC(=O)CNC(=O)[C@H](CCC(=O)O)NC(=O)[C@H](CC(C)C)NC(C)=O)C(C)C)[C@@H](C)CC)C(=O)N[C@@H](CO)C(=O)N[C@H](C(=O)N[C@@H](Cc1c[nH]c2ccccc12)C(=O)N[C@@H](CO)C(=O)NC(C)(C)C(=O)N[C@@H](CCCNC(=N)N)C(=O)N[C@@H](CCCCNC(C)=O)C(=O)N[C@@H](CCCCN)C(N)=O)[C@@H](C)O)C(=O)O)C(=O)O)C(=O)O` [compound 68] (Ac-LEGREKVRAK(Ac)I[Aib][Aib]EGK([Suc-X1])STWS[Aib]RK(Ac)K-NH2): the EC50 was 0.88 nM and the Emax came out at 98%. `CCCCCCCCCCCCCCCC(=O)N[C@@H](CCC(=O)N[C@@H](CCC(=O)N[C@@H](CCC(=O)NCCCOCCOCCOCCCNC(=O)CCC(=O)NCCCOCCOCCOCCCNC(=O)CCC(=O)NCCCOCCOCCOCCCNC(=O)CCC(=O)NCCCC[C@H](NC(=O)CNC(=O)[C@H](CCC(=O)O)NC(=O)C(C)(C)NC(=O)C(C)(C)NC(=O)[C@@H](NC(=O)[C@H](CCCCNC(C)=O)NC(=O)[C@H](C)NC(=O)[C@H](CCCNC(=N)N)NC(=O)[C@@H](NC(=O)[C@H](CCCCN)NC(=O)[C@H](CCC(=O)O)NC(=O)[C@H](CCCNC(=N)N)NC(=O)CNC(=O)[C@H](CCC(=O)O)NC(=O)[C@H](CC(C)C)NC(C)=O)C(C)C)[C@@H](C)CC)C(=O)N[C@@H](CO)C(=O)N[C@H](C(=O)N[C@@H](Cc1c[nH]c2ccccc12)C(=O)N[C@@H](CO)C(=O)NC(C)(C)C(=O)N[C@@H](CCCNC(=N)N)C(=O)N[C@@H](CCCCNC(C)=O)C(=O)N[C@@H](CCCNC(=N)N)C(N)=O)[C@@H](C)O)C(=O)O)C(=O)O)C(=O)O` [compound 69] (Ac-LEGREKVRAK(Ac)I[Aib][Aib]EGK([Suc-X1])STWS[Aib]RK(Ac)R-NH2): the EC50 was 0.78 nM and the maximal effect (Emax) was determined as 97%.

`CCCCCCCCCCCCCCCC(=O)N[C@@H](CCC(=O)N[C@@H](CCC(=O)N[C@@H](CCC(=O)NCCCOCCOCCOCCCNC(=O)CCC(=O)NCCCOCCOCCOCCCNC(=O)CCC(=O)NCCCOCCOCCOCCCNC(=O)CCC(=O)NCCCC[C@H](NC(=O)CNC(=O)[C@H](CCC(=O)O)NC(=O)C(C)(C)NC(=O)C(C)(C)NC(=O)[C@@H](NC(=O)[C@H](CCCCNC(C)=O)NC(=O)[C@H](C)NC(=O)[C@H](CCCNC(=N)N)NC(=O)[C@@H](NC(=O)[C@H](CCCCN)NC(=O)[C@H](CCC(=O)O)NC(=O)[C@H](CCCNC(=N)N)NC(=O)CNC(=O)[C@H](CCC(=O)O)NC(=O)[C@H](CC(C)C)NC(C)=O)C(C)C)[C@@H](C)CC)C(=O)N[C@@H](CO)C(=O)N[C@@H](CCCCN)C(=O)N[C@@H](Cc1c[nH]c2ccccc12)C(=O)N[C@@H](CO)C(=O)NC(C)(C)C(=O)N[C@@H](CCCNC(=N)N)C(=O)N[C@@H](C)C(=O)N[C@@H](CCCCN)C(N)=O)C(=O)O)C(=O)O)C(=O)O` [compound 73] (Ac-LEGREKVRAK(Ac)I[Aib][Aib]EGK([Suc-X1])SKWS[Aib]RAK-NH2) displayed an EC50 of 0.2 nM and an Emax of 95%. `CCCCCCCCCCCCCCCC(=O)N[C@@H](CCC(=O)N[C@@H](CCC(=O)N[C@@H](CCC(=O)NCCCOCCOCCOCCCNC(=O)CCC(=O)NCCCOCCOCCOCCCNC(=O)CCC(=O)NCCCOCCOCCOCCCNC(=O)CCC(=O)NCCCC[C@H](NC(=O)CNC(=O)[C@H](CCC(=O)O)NC(=O)C(C)(C)NC(=O)C(C)(C)NC(=O)[C@@H](NC(=O)[C@H](CCCCNC(C)=O)NC(=O)[C@H](C)NC(=O)[C@H](CCCNC(=N)N)NC(=O)[C@@H](NC(=O)[C@H](CCCNC(=N)N)NC(=O)[C@H](CCC(=O)O)NC(=O)[C@H](CCCNC(=N)N)NC(=O)CNC(=O)[C@H](CCC(=O)O)NC(=O)[C@H](CC(C)C)NC(C)=O)C(C)C)[C@@H](C)CC)C(=O)N[C@@H](CO)C(=O)N[C@H](C(=O)N[C@@H](Cc1ccccc1)C(=O)N[C@@H](CO)C(=O)NC(C)(C)C(=O)N[C@@H](CCCNC(=N)N)C(=O)N[C@@H](CCCNC(=N)N)C(=O)N[C@@H](CCCCNC(C)=O)C(N)=O)[C@@H](C)O)C(=O)O)C(=O)O)C(=O)O` [compound 76] (Ac-LEGRERVRAK(Ac)I[Aib][Aib]EGK([Suc-X1])STFS[Aib]RRK(Ac)-NH2) yielded a concentration for a half-maximal effect (EC50) of 0.18 nM and an Emax of 96%. In the case of `CCCCCCCCCCCCCCCC(=O)N[C@@H](CCC(=O)N[C@@H](CCC(=O)N[C@@H](CCC(=O)NCCCOCCOCCOCCCNC(=O)CCC(=O)NCCCOCCOCCOCCCNC(=O)CCC(=O)NCCCOCCOCCOCCCNC(=O)CCC(=O)NCCCOCCOCCOCCCNC(=O)CCC(=O)NCCCC[C@H](NC(=O)CNC(=O)[C@H](CCC(=O)O)NC(=O)C(C)(C)NC(=O)C(C)(C)NC(=O)[C@@H](NC(=O)[C@H](CCCCNC(C)=O)NC(=O)[C@H](C)NC(=O)[C@H](CCCNC(=N)N)NC(=O)[C@@H](NC(=O)[C@H](CCCNC(=N)N)NC(=O)[C@H](CCC(=O)O)NC(=O)[C@H](CCCNC(=N)N)NC(=O)CNC(=O)[C@H](CCC(=O)O)NC(=O)[C@H](CC(C)C)NC(C)=O)C(C)C)[C@@H](C)CC)C(=O)N[C@@H](CO)C(=O)N[C@H](C(=O)N[C@@H](Cc1ccccc1)C(=O)N[C@@H](CO)C(=O)NC(C)(C)C(=O)N[C@@H](CCCNC(=N)N)C(=O)N[C@@H](CCCNC(=N)N)C(=O)N[C@@H](CCCCNC(C)=O)C(N)=O)[C@@H](C)O)C(=O)O)C(=O)O)C(=O)O` [compound 77] (Ac-LEGRERVRAK(Ac)I[Aib][Aib]EGK([Suc-X5])STFS[Aib]RRK(Ac)-NH2), the EC50 amounted to 0.11 nM and the maximal response (Emax) turned out to be 98%.
